Results on 81 molecules are retold here after the Kinase Knowledgebase extract (Sharma et al. 2016).

For this test, the target named is PIK3CA (human) (UniProt P42336). As to the kind of experiment: Cell-Based Assay. To be noted: bt20.
Sequence of PIK3CA (human) (P42336 whole entry, looked up): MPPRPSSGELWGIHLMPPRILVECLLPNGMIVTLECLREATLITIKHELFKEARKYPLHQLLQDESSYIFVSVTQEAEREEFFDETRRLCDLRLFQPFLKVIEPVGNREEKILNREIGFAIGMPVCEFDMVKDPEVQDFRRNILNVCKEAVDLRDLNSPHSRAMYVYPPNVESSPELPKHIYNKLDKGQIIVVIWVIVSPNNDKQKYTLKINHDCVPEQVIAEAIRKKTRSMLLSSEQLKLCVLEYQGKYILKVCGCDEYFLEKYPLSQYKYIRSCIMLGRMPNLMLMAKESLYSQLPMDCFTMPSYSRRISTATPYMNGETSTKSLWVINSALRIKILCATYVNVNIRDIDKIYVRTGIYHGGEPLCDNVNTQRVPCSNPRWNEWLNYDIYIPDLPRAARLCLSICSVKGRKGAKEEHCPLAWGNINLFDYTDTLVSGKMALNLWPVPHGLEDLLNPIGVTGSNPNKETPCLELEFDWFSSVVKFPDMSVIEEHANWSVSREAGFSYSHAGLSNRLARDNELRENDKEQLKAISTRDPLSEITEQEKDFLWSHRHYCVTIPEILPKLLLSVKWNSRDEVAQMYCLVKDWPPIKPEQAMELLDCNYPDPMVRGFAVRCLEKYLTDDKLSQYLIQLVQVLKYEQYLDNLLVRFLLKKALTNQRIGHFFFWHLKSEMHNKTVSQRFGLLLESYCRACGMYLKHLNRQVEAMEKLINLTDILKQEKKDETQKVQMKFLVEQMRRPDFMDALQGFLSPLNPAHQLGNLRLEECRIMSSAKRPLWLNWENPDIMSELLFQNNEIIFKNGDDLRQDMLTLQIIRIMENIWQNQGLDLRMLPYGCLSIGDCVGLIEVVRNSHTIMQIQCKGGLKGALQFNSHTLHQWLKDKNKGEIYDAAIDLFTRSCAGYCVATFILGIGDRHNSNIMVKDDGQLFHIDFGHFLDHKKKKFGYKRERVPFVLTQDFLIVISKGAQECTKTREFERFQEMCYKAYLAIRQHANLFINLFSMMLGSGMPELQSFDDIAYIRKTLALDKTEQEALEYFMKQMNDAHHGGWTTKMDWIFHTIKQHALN

Take `CC(C)OC(=O)N1CCC(n2c(=O)n(C)c3cnc4ccc(-c5cnc6ccccc6c5)nc4c32)CC1`: the IC50 (usually the concentration needed to halve the response being measured) was found to be 19.6 nM.

The molecule `Cn1c(=O)n(C2CCNCC2)c2c3nc(-c4cnc(N)nc4)ccc3ncc21` showed an IC50 of 137 nM.

Molecule `CN(C)c1ccc(-c2ccc3ncc4c(c3n2)n([C@H]2CC[C@H](OCCO)CC2)c(=O)n4C)cn1` returned an IC50 of 11.6 nM.

`Cc1ccc(-c2ccc3ncc4c(c3n2)n(C2CCN(CCO)CC2)c(=O)n4C)cn1` displayed an IC50 of 35.6 nM.

In turn, `Cn1c(=O)n(C2CCOCC2)c2c3nc(-c4cn[nH]c4)ccc3ncc21` returned an IC50 of 18.3 nM.

In the case of `Cn1c(=O)n(C2CCN(C(=O)C(C)(C)N)CC2)c2c3nc(-c4cnc5ccccc5c4)ccc3ncc21`, the IC50 turned out to be 11.7 nM.

The molecule `Cc1ccc(-c2ccc3ncc4c(c3n2)n(C2CCN(C(=O)CN(C)C)CC2)c(=O)n4C)cn1` came in with an IC50 of 42.7 nM.

In turn, `COc1ccc(-c2ccc3ncc4[nH]c(=O)n([C@H]5CC[C@H](OCCO)CC5)c4c3n2)cn1` came in with an IC50 of 38.4 nM.

`COc1ccc(-c2ccc3ncc4[nH]c(=O)n(-c5ccc(C(C)(C)C#N)cc5)c4c3n2)cn1` yielded an IC50 of 11.5 nM.

`COC(=O)N1CCC(n2c(=O)n(C)c3cnc4ccc(-c5cnc6ccccc6c5)nc4c32)CC1`: the IC50 stood at 8.07 nM.

For the molecule `Cn1c(=O)n([C@H]2CC[C@H](O)CC2)c2c3nc(-c4cn[nH]c4)ccc3ncc21`, the IC50 is 19.7 nM.

`CC(=O)N1CCC(n2c(=O)n(C)c3cnc4ccc(-c5cnc6ccccc6c5)nc4c32)CC1` returned an IC50 of 4.59 nM.

Turning to `Cn1c(=O)n([C@H]2CC[C@H](O)CC2)c2c3nc(-c4cccc5[nH]ccc45)ccc3ncc21`, the IC50 was 9.61 nM.

`COc1ncc(-c2ccc3ncc4c(c3n2)n([C@H]2CC[C@H](C(N)=O)CC2)c(=O)n4C)cn1` showed an IC50 of 45.6 nM.

With `CC(=O)N1CCC(n2c(=O)n(C)c3cnc4ccc(-c5ccc(N)nc5)nc4c32)CC1`, the IC50 was determined as 9.17 nM.

As for `CN1CCC(n2c(=O)n(C)c3cnc4ccc(-c5cnc6ccccc6c5)nc4c32)CC1`, the IC50 amounted to 11.7 nM.

The molecule `Cn1c(=O)n([C@H]2CC[C@H](O)CC2)c2c3nc(-c4cc[nH]n4)ccc3ncc21` came in with an IC50 of 264 nM.

For `CCNC(=O)N1CCC(n2c(=O)n(C)c3cnc4ccc(-c5cnc6ccccc6c5)nc4c32)CC1`, the IC50 stood at 17 nM.

For the molecule `Cn1c(=O)n(C2CCOCC2)c2c3nc(-c4cnn(CCO)c4)ccc3ncc21`, the IC50 was 579 nM.

The molecule `COc1cccc(-c2ccc3ncc4c(c3n2)n(C2CCN(C(C)=O)CC2)c(=O)n4C)c1` showed an IC50 of 57.7 nM.

The molecule `COCCN1CCC(n2c(=O)n(C)c3cnc4ccc(-c5ccc(N(C)C)nc5)nc4c32)CC1` displayed an IC50 of 31.8 nM.

`Cn1c(=O)n(C2CCOCC2)c2c3nc(-c4cnc(N)nc4)ccc3ncc21` displayed an IC50 of 6.94 nM.

Take `CCOC(=O)N1CCC(n2c(=O)n(C)c3cnc4ccc(-c5cnc6ccccc6c5)nc4c32)CC1`: the IC50 amounted to 20.4 nM.

`CC(C)(C#N)c1ccc(-n2c(=O)[nH]c3cnc4ccc(-c5cnc6ccccc6c5)nc4c32)cc1`: the IC50 was determined as 6.47 nM.

Take `Cc1ccc(-c2ccc3ncc4c(c3n2)n(C2CCN(CC(N)=O)CC2)c(=O)n4C)cn1`: the IC50 came out at 18.7 nM.

`Cc1ccc(-c2ccc3ncc4c(c3n2)n(-c2ccc(C(C)(C)C#N)cc2)c(=O)n4C)cn1` showed an IC50 of 24.4 nM.

`COCCn1c(=O)n(C)c2cnc3ccc(-c4ccc(OC)nc4)nc3c21` had an IC50 of 207 nM.

`CN(C)c1ccc(-c2ccc3ncc4c(c3n2)n(C2CCN(CCO)CC2)c(=O)n4C)cn1` displayed an IC50 of 32.5 nM.

In the case of `COc1ncc(-c2ccc3ncc4c(c3n2)n(-c2ccc(C(C)(C)C#N)cc2)c(=O)n4C)cc1F`, the IC50 was 90.7 nM.

Turning to `C[C@H](CO)n1c(=O)n(C)c2cnc3ccc(-c4cnc(N)nc4)nc3c21`, the IC50 turned out to be 331 nM.

In the case of `COc1ncc(-c2ccc3ncc4[nH]c(=O)n(-c5ccc(C(C)(C)C#N)cc5)c4c3n2)cn1`, the IC50 was 43.9 nM.

The molecule `CNC(=O)N1CCC(n2c(=O)n(C)c3cnc4ccc(-c5ccc(C)nc5)nc4c32)CC1` registered an IC50 of 59.4 nM.

With `Cn1c(=O)n(C2CCN(C(=O)CO)CC2)c2c3nc(-c4cnc5[nH]ncc5c4)ccc3ncc21`, the half-inhibitory concentration (IC50) was determined as 59.4 nM.

With `COc1cccc(-c2ccc3ncc4c(c3n2)n(C2CCN(C(=O)[C@H](C)O)CC2)c(=O)n4C)c1`, the IC50 came out at 34.4 nM.

`CC(=O)N1CCC(n2c(=O)n(C)c3cnc4ccc(-c5ccnc6[nH]ncc56)nc4c32)CC1` returned an IC50 of 140 nM.

On to `C[C@H](CO)n1c(=O)n(C)c2cnc3ccc(-c4cccc5[nH]ccc45)nc3c21`, for which the IC50 was 55.3 nM.

In turn, `COc1ccc(-c2ccc3ncc4c(c3n2)n([C@@H](C)CO)c(=O)n4C)cn1` came in with an IC50 of 266 nM.

`Cn1c(=O)n(C2CCN(C(=O)C(C)(C)O)CC2)c2c3nc(-c4cnc5ccccc5c4)ccc3ncc21`: the IC50 is 28 nM.

Consider `C[C@@H](O)C(=O)N1CCC(n2c(=O)n(C)c3cnc4ccc(-c5cnc6[nH]ncc6c5)nc4c32)CC1`, for which the IC50 was determined as 29.4 nM.

For `Cn1c(=O)n(C2CCN(C(=O)OCc3ccccc3)CC2)c2c3nc(-c4cnc5ccccc5c4)ccc3ncc21`, the IC50 is 13.4 nM.

Consider `Cn1c(=O)n([C@H]2CC[C@H](N)CC2)c2c3nc(-c4cnc5ccccc5c4)ccc3ncc21`, for which the IC50 amounted to 46.4 nM.

Consider `Cn1c(=O)n([C@H]2CC[C@H](O)CC2)c2c3nc(-c4ccc5[nH]ncc5c4)ccc3ncc21`, for which the IC50 stood at 20.5 nM.

`Cn1cc(-c2ccc3ncc4c(c3n2)n(C2CCOCC2)c(=O)n4C)cn1`: the IC50 was found to be 71.8 nM.

For `Cc1ccc(-c2ccc3ncc4c(c3n2)n(C2CCN(C(=O)CN)CC2)c(=O)n4C)cn1`, the IC50 is 68.9 nM.

`C[C@@H](CO)n1c(=O)n(C)c2cnc3ccc(-c4cnn(C)c4)nc3c21` came in with an IC50 of 5040 nM.

Molecule `CN(C)c1ccc(-c2ccc3ncc4[nH]c(=O)n(-c5ccc(C(C)(C)C#N)cc5)c4c3n2)cn1` came in with an IC50 of 67.6 nM.

In turn, `CC(=O)N1CCC(n2c(=O)n(C)c3cnc4ccc(-c5cccc6ncccc56)nc4c32)CC1` gave an IC50 of 194 nM.

With `CN(C)c1ccc(-c2ccc3ncc4c(c3n2)n([C@H]2CC[C@H](O)CC2)c(=O)n4C)cn1`, the IC50 stood at 5.26 nM.

The molecule `CN(C)c1ccc(-c2ccc3ncc4c(c3n2)n(C2CCOCC2)c(=O)n4C)cn1` yielded an IC50 of 29 nM.

`Cn1c(=O)n([C@H]2CC[C@H](O)CC2)c2c3nc(-c4cnc5ccccc5c4)ccc3ncc21`: the IC50 amounted to 5.21 nM.

`COc1ccc(-c2ccc3ncc4c(c3n2)n(C2CCN(C(C)=O)CC2)c(=O)n4C)cc1` gave a 50% inhibitory concentration (IC50) of 11.3 nM.

`COc1ncc(-c2ccc3ncc4c(c3n2)n(C2CCN(CC(=O)N(C)C)CC2)c(=O)n4C)cn1` had an IC50 of 37 nM.

`COc1ncc(-c2ccc3ncc4c(c3n2)n(C2CCN(C(C)=O)CC2)c(=O)n4C)cn1` showed an IC50 of 34.6 nM.

`CNC(=O)N1CCC(n2c(=O)n(C)c3cnc4ccc(-c5ccc(OC)nc5)nc4c32)CC1` returned an IC50 of 9.19 nM.

`COc1ncc(-c2ccc3ncc4c(c3n2)n(C2CCN(CC(N)=O)CC2)c(=O)n4C)cn1` displayed an IC50 of 90.3 nM.

Molecule `CNC(=O)N1CCC(n2c(=O)n(C)c3cnc4ccc(-c5cnc6ccccc6c5)nc4c32)CC1` returned an IC50 of 7.34 nM.

Molecule `COc1ncc(-c2ccc3ncc4c(c3n2)n(C2CCN(C(=O)CN(C)C)CC2)c(=O)n4C)cn1` gave an IC50 of 175 nM.

`Cn1c(=O)n(C2CCN(C(=O)C(C)(C)O)CC2)c2c3nc(-c4cnc5[nH]ncc5c4)ccc3ncc21`: the IC50 is 9.91 nM.

The molecule `COCC(=O)N1CCC(n2c(=O)n(C)c3cnc4ccc(-c5cnc6[nH]ncc6c5)nc4c32)CC1` gave an IC50 of 15.3 nM.

The molecule `CN(C)c1ccc(-c2ccc3ncc4c(c3n2)n(-c2ccc(C(C)(C)C#N)cc2)c(=O)n4C)cn1` came in with an IC50 of 30.9 nM.

`Cn1cc(-c2ccc3ncc4c(c3n2)n([C@H]2CC[C@H](C(N)=O)CC2)c(=O)n4C)cn1` showed an IC50 of 224 nM.

`COc1ncc(-c2ccc3ncc4c(c3n2)n(C2CCNCC2)c(=O)n4C)cn1` yielded an IC50 of 333 nM.

For the molecule `CN(C)CC(=O)N1CCC(n2c(=O)n(C)c3cnc4ccc(-c5ccc(N(C)C)nc5)nc4c32)CC1`, the IC50 stood at 15.3 nM.

Molecule `CCN1CCC(n2c(=O)n(C)c3cnc4ccc(-c5cnc6ccccc6c5)nc4c32)CC1` showed an IC50 of 11.7 nM.

As to `Cn1c(=O)n([C@H]2CC[C@H](O)CC2)c2c3nc(-c4cnn(CCO)c4)ccc3ncc21`, the IC50 was determined as 448 nM.

`COc1ncc(-c2ccc3ncc4[nH]c(=O)n(-c5ccc(C(C)(C)C#N)cc5)c4c3n2)cc1F` yielded an IC50 of 197 nM.

`CN(C)c1ccc(-c2ccc3ncc4c(c3n2)n(C2CCN(C(=O)C(C)(C)C)CC2)c(=O)n4C)cn1` came in with an IC50 of 21.4 nM.

`COc1ncc(-c2ccc3ncc4c(c3n2)n(C2CCN(C(=O)CN)CC2)c(=O)n4C)cn1` had an IC50 of 184 nM.

In the case of `CC(C)C(=O)N1CCC(n2c(=O)n(C)c3cnc4ccc(-c5cnc6ccccc6c5)nc4c32)CC1`, the IC50 worked out at 29.4 nM.

Molecule `CN(C)c1ccc(-c2ccc3ncc4c(c3n2)n(C2CCN(C(=O)C(C)(C)O)CC2)c(=O)n4C)cn1` had an IC50 of 6.69 nM.

As to `COc1ccc(-c2ccc3ncc4[nH]c(=O)n([C@H]5CC[C@H](O)CC5)c4c3n2)cn1`, the IC50 came out at 46.8 nM.

`Cn1c(=O)n(C2CCN(C(=O)CO)CC2)c2c3nc(-c4cccc5[nH]ncc45)ccc3ncc21`: the IC50 came to 60.4 nM.

Molecule `Cn1cc(-c2ccc3ncc4[nH]c(=O)n(-c5ccc(C(C)(C)C#N)cc5)c4c3n2)cn1` registered an IC50 of 97.3 nM.

For the molecule `COc1ccc(-c2ccc3ncc4c(c3n2)n(C2CCN(C(C)C)CC2)c(=O)n4C)cn1`, the IC50 stood at 55.1 nM.

The molecule `CN(C)c1ccc(-c2ccc3ncc4c(c3n2)n(C2CCN(C(=O)CO)CC2)c(=O)n4C)cn1` displayed an IC50 of 6.23 nM.

As for `Cn1c(=O)n(C2CCNCC2)c2c3nc(-c4cnn(CCO)c4)ccc3ncc21`, the IC50 amounted to 3210 nM.

As for `Cn1c(=O)n([C@H]2CC[C@H](O)CC2)c2c3nc(-c4cnc(N)nc4)ccc3ncc21`, the IC50 worked out at 3.36 nM.

As for `Cc1ccc(-c2ccc3ncc4c(c3n2)n(C2CCOCC2)c(=O)n4CCO)cn1`, the IC50 is 428 nM.

In turn, `COc1ccc(-c2ccc3ncc4c(c3n2)n(C2CCN(C(=O)CN(C)C)CC2)c(=O)n4C)cn1` had an IC50 of 14.4 nM.

Regarding `O=c1[nH]c2cnc3ccc(-c4cnc5ccccc5c4)nc3c2n1C1CCNCC1`, the IC50 was determined as 353 nM.

As to `COc1ccc(-c2ccc3ncc4c(c3n2)n(CCN2CCNCC2)c(=O)n4C)cn1`, the IC50 turned out to be 344 nM.
